Patent US12049439B2 (OrsoBio, Inc., priority 2018, dated 2024)

System: PC-3 cells
Assay: PC-3 Oxygen Rate Consumption (OCR) Assay
Format: cell-based
Details: Homo sapiens, 0.05 h, medium with 2% FBS, OCR at 3-min post-injection normalized to % increase over DMSO-treated cells, concentration for half-maximal OCR increase, read-out: EC50-PC3-OCR-FBS-3min
Experimental: PC-3 Oxygen Rate Consumption (OCR) Assay Procedure:
One day before the assay, PC-3 cells were seeded at 2.5×10^4 cells/160 μL/well in a 96-well XFe96 cell plate, part of a FlexPak containing a cell plate and a cartridge (Agilent, Sunnyvale, CA). The cells were incubated overnight at 37° C. in a 5% CO2 and 90% humidity incubator with F12K culture medium (ThermoFisher Scientific/Invitrogen, Grand Island, NY) containing 10% FBS and 1% penicillin/streptomycin. On the day of the assay, the cells were washed twice with 300 µL/well Medium A [XF assay medium (Agilent) supplemented 10 mM glucose, 1 mM pyruvate, and 2% fetal bovine serum (FBS)], and incubated with 175 µL/well Media A for 1 hr in a 37° C., non-CO2 incubator prior to the measurement of cellular respiration. Compounds of interests were prepared in 1:2 serial dilutions with 100% DMSO and then further diluted into 8× working stock with Media A prior to being loaded to Injection Port A on a XFe96 Analyzer (Agilent). Six replicates were used for each treatment. The cartridge was calibrated in the XFe96 Analyzer 30 minute prior to the measurement of cellular respiration. Basal levels of OCR were measured three times, each using a “3-minute mixing/3-minute measurement” program. The compound effect was measured immediately after compound injection from Injection Port A, and OCR was monitored continuously 10 times, each time using a “1-minute mixing/2-minute measurement” program for a total of 30 minutes post compound injection. The level of OCR at 3-min post-injection was normalized to % increase over DMSO-treated cells. The concentration of compound required to reach the half-maximal OCR increase was defined as EC50 Table 2 contains PC3 OCR EC50 values for the compounds disclosed.

Structure (SMILES) | EC50 [µM]
NC(=O)c1ccc(S(=O)(=O)Nc2cc(C(F)(F)F)ccc2C(=O)NC23CC(C(F)(F)F)(C2)C3)cc1 [Example 53, 2-((4-carbamoylphenyl)sulfonamido)-4-(trifluoromethyl)-N-(3-(trifluoromethyl)bicyclo[1.1.1]pentan-1-yl)benzamide] | 46.1
CC(C)S(=O)(=O)Nc1cc(C(F)(F)F)ccc1C(=O)NC12CC(c3ccccc3)(C1)C2 [Example 54, 2-((1-methylethyl)sulfonamido)-N-(3-phenylbicyclo[1.1.1]pentan-1-yl)-4-(trifluoromethyl)benzamide] | 1.22
CC(C)S(=O)(=O)Nc1cc(C(F)(F)F)ccc1C(=O)NC12CC(C1)C2 [Example 55, N-(bicyclo[1.1.1]pentan-1-yl)-2-((1-methylethyl)sulfonamido)-4-(trifluoromethyl)benzamide] | 6.32
CC(C)S(=O)(=O)Nc1cc(C(F)(F)F)ccc1C(=O)NC12CC(C(F)(F)F)(C1)C2 [Example 56, 2-((1-methylethyl)sulfonamido)-4-(trifluoromethyl)-N-(3-(trifluoromethyl)bicyclo[1.1.1]pentan-1-yl)benzamide] | 0.825
CC(C)S(=O)(=O)Nc1cc(C(F)(F)F)ccc1C(=O)NC12CCC(C#N)(CC1)CC2 [Example 57, N-(4-cyanobicyclo[2.2.2]octan-1-yl)-2-((1-methylethyl)sulfonamido)-4-(trifluoromethyl)benzamide] | 8.09
NS(=O)(=O)c1ccc(S(=O)(=O)Nc2cc(C(F)(F)F)ccc2C(=O)NC23CC(C(F)(F)F)(C2)C3)cc1 [Example 58, 2-((4-sulfamoylphenyl)sulfonamido)-4-(trifluoromethyl)-N-(3-(trifluoromethyl)bicyclo[1.1.1]pentan-1-yl)benzamide] | 63.4
O=C(NC12CC(C(F)(F)F)(C1)C2)c1ccc(C(F)(F)F)cc1NS(=O)(=O)c1cccnc1 [Example 59, 2-(pyridine-3-sulfonamido)-4-(trifluoromethyl)-N-(3-(trifluoromethyl)bicyclo[1.1.1]pentan-1-yl)benzamide] | 1.84
CC(C)S(=O)(=O)Nc1cc(C(F)(F)F)ccc1C(=O)NC12CC(C#N)(C1)C2 [Example 60, N-(3-cyanobicyclo[1.1.1]pentan-1-yl)-2-((1-methylethyl)sulfonamido)-4-(trifluoromethyl)benzamide] | 6.22
Cc1ccc(C(=O)NC23CC(C(F)(F)F)(C2)C3)c(NS(=O)(=O)C(C)C)c1 [Example 61, 4-methyl-2-((1-methylethyl)sulfonamido)-N-(3-(trifluoromethyl)bicyclo[1.1.1]pentan-1-yl)benzamide] | ≥ 100
Cc1ncc(S(=O)(=O)Nc2cc(C(F)(F)F)ccc2C(=O)NC23CC(C(F)(F)F)(C2)C3)s1 [Example 62, 2-((2-methylthiazole)-5-sulfonamido)-4-(trifluoromethyl)-N-(3-(trifluoromethyl)bicyclo[1.1.1]pentan-1-yl)benzamide] | 1.53
CC1(S(=O)(=O)Nc2cc(C(F)(F)F)ccc2C(=O)NC23CC(C(F)(F)F)(C2)C3)CC1 [Example 63, 2-((1-methylcyclopropane)-1-sulfonamido)-4-(trifluoromethyl)-N-(3-(trifluoromethyl)bicyclo[1.1.1]pentan-1-yl)benzamide] | 0.937
CC1(S(=O)(=O)Nc2cc(C(F)(F)F)ccc2C(=O)NC23CC(C#N)(C2)C3)CC1 [Example 64, N-(3-cyanobicyclo[1.1.1]pentan-1-yl)-2-((1-methylcyclopropane)-1-sulfonamido)-4-(trifluoromethyl)benzamide] | 5.22
Cc1ccc(C(=O)NC23CC(C(F)(F)F)(C2)C3)c(NS(=O)(=O)c2ccncc2)c1 [Example 65, 4-methyl-2-(pyridine-4-sulfonamido)-N-(3-(trifluoromethyl)bicyclo[1.1.1]pentan-1-yl)benzamide] | 21.8
CC1(S(=O)(=O)Nc2cc(C(F)(F)F)ccc2C(=O)NC23CC(C2)C3)CC1 [Example 66, N-(bicyclo[1.1.1]pentan-1-yl)-2-((1-methylcyclopropane)-1-sulfonamido)-4-(trifluoromethyl)benzamide] | 8.35
CC1(S(=O)(=O)Nc2cc(C(F)(F)F)ccc2C(=O)NC23CCC(C#N)(CC2)CC3)CC1 [Example 67, N-(4-cyanobicyclo[2.2.2]octan-1-yl)-2-((1-methylcyclopropane)-1-sulfonamido)-4-(trifluoromethyl)benzamide] | 5.92
CC(C)S(=O)(=O)Nc1ccc(C(F)(F)F)cc1C(=O)NC12CC(C#N)(C1)C2 [Example 68, N-(3-cyanobicyclo[1.1.1]pentan-1-yl)-2-((1-methylethyl)sulfonamido)-5-(trifluoromethyl)benzamide] | 5.13

Structure (SMILES) | EC50 [µM]
CC(C)S(=O)(=O)Nc1ccc(C(F)(F)F)cc1C(=O)NC12CC(C(F)(F)F)(C1)C2 [Example 69, 2-((1-methylethyl)sulfonamido)-5-(trifluoromethyl)-N-(3-(trifluoromethyl)bicyclo[1.1.1]pentan-1-yl)benzamide] | 0.518
CC(C)S(=O)(=O)Nc1ccc(C(F)(F)F)cc1C(=O)NC12CC(Cl)(C1)C2 [Example 70, N-(3-chlorobicyclo[1.1.1]pentan-1-yl)-2-((1-methylethyl)sulfonamido)-5-(trifluoromethyl)benzamide] | 0.591
CC(C)S(=O)(=O)Nc1ccc(C(F)(F)F)cc1C(=O)NC12CC(C1)C2 [Example 71, N-(bicyclo[1.1.1]pentan-1-yl)-2-((1-methylethyl)sulfonamido)-5-(trifluoromethyl)benzamide] | 6.67
CC(C)S(=O)(=O)Nc1ccc(C(F)(F)F)cc1C(=O)NC12CCC(C#N)(CC1)CC2 [Example 72, N-(4-cyanobicyclo[2.2.2]octan-1-yl)-2-((1-methylethyl)sulfonamido)-5-(trifluoromethyl)benzamide] | 4.01
O=C(NC12CC(C(F)(F)F)(C1)C2)c1cc(C(F)(F)F)ccc1NS(=O)(=O)C1COC1 [Example 73, 2-(oxetane-3-sulfonamido)-5-(trifluoromethyl)-N-(3-(trifluoromethyl)bicyclo[1.1.1]pentan-1-yl)benzamide] | 2.62
O=C(NC12CC(Cl)(C1)C2)c1cc(C(F)(F)F)ccc1NS(=O)(=O)C1COC1 [Example 74, N-(3-chlorobicyclo[1.1.1]pentan-1-yl)-2-(oxetane-3-sulfonamido)-5-(trifluoromethyl)benzamide] | 6.17
N#CC12CCC(NC(=O)c3cc(C(F)(F)F)ccc3NS(=O)(=O)C3COC3)(CC1)CC2 [Example 75, N-(4-cyanobicyclo[2.2.2]octan-1-yl)-2-(oxetane-3-sulfonamido)-5-(trifluoromethyl)benzamide] | 25.9
Cc1ncc(S(=O)(=O)Nc2cc(C(F)(F)F)ccc2C(=O)NC23CCC(C#N)(CC2)CC3)s1 [Example 76, N-(4-cyanobicyclo[2.2.2]octan-1-yl)-2-((2-methylthiazole)-5-sulfonamido)-4-(trifluoromethyl)benzamide] | 9.19
CC(C)(C)S(=O)(=O)Nc1cc(C#N)ccc1C(=O)NC12CCC(C#N)(CC1)CC2 [Example 77, 4-cyano-N-(4-cyanobicyclo[2.2.2]octan-1-yl)-2-((1,1-dimethylethyl)sulfonamido)benzamide] | 8.65
CC(C)S(=O)(=O)Nc1cc(C#N)ccc1C(=O)NC12CCC(C#N)(CC1)CC2 [Example 78, 4-cyano-N-(4-cyanobicyclo[2.2.2]octan-1-yl)-2-((1-methylethyl)sulfonamido)benzamide] | 39.8
CS(=O)(=O)Nc1cc(F)ccc1C(=O)NC12CC(Cl)(C1)C2 [Example 79, N-(3-chlorobicyclo[1.1.1]pentan-1-yl)-4-fluoro-2-(methylsulfonamido)benzamide] | 21.2
CS(=O)(=O)Nc1ccc(C(F)(F)F)cc1C(=O)NC12CC(Cl)(C1)C2 [Example 80, N-(3-chlorobicyclo[1.1.1]pentan-1-yl)-2-(methylsulfonamido)-5-(trifluoromethyl)benzamide] | 2.54
CS(=O)(=O)Nc1ccc(C(F)(F)F)cc1C(=O)NC12CCC(C(F)F)(CC1)CC2 [Example 81, N-(4-(difluoromethyl)bicyclo[2.2.2]octan-1-yl)-2-(methylsulfonamido)-5-(trifluoromethyl)benzamide] | 2.39
CS(=O)(=O)Nc1ccc(C(F)(F)F)cc1C(=O)NC12CCC(F)(CC1)CC2 [Example 82, N-(4-fluorobicyclo[2.2.2]octan-1-yl)-2-(methylsulfonamido)-5-(trifluoromethyl)benzamide] | 6.32
CC(C)(C)S(=O)(=O)Nc1ccc(Cl)cc1C(=O)NC12CC(c3ccccc3)(C1)C2 [Example 83, 5-chloro-2-((1,1-dimethylethyl)sulfonamido)-N-(3-phenylbicyclo[1.1.1]pentan-1-yl)benzamide] | 5.43
CC(C)(C)S(=O)(=O)Nc1ccc(Cl)cc1C(=O)NC12CC(C(F)(F)F)(C1)C2 [Example 84, 5-chloro-2-((1,1-dimethylethyl)sulfonamido)-N-(3-(trifluoromethyl)bicyclo[1.1.1]pentan-1-yl)benzamide] | 1.04
